In US9856478B2, “Method for selectively inhibiting ACAT1 in the treatment of obesity, metabolic syndrome, and atherosclerosis” (Trustees of Dartmouth College, priority 2013, dated 2018):

How the values were obtained:
ACAT2 = conditions: cited from earlier work
blood myeloid cells = experiment: Blood myeloid cells (CD11b+Gr1+) after 5-FU injection, flow cytometry; assay type: in vivo, mouse; conditions: 150 mg/kg single injection, six days post-injection
Description: It also had shown previously that global Acat1^−/− induces leukocytosis (Huang et al. 2013. Arterioscl. Thromb. Vasc. Biol. 33:2081-2087). Therefore, experiments were performed to compare the hematopoietic recovery of wild-type, global Acat1^−/−, and Acat1^−M/−M mice after injection of the myelo-suppressive agent 5-fluorouracil (5-FU; 150 mg/kg) (Lindner et al. 1960. Cancer Res. 20:497-502). Mice from all three genotypes (7-9 weeks of age) were administered a single 5-FU injection. After injection, blood myeloid cells (CD11b+Gr1+) isolated from these mice were monitored by flow cytometry. […] Six days post-injection, almost all of the myeloid cells in wild-type, Acat1^−/− and Acat1^−M/−M mice were depleted by 5-FU.

hACAT-2 = molecular target: T1, hACAT-2 (Homo sapiens, UniProt O75908); conditions: cited from earlier work
T1 sequence (O75908 1-522): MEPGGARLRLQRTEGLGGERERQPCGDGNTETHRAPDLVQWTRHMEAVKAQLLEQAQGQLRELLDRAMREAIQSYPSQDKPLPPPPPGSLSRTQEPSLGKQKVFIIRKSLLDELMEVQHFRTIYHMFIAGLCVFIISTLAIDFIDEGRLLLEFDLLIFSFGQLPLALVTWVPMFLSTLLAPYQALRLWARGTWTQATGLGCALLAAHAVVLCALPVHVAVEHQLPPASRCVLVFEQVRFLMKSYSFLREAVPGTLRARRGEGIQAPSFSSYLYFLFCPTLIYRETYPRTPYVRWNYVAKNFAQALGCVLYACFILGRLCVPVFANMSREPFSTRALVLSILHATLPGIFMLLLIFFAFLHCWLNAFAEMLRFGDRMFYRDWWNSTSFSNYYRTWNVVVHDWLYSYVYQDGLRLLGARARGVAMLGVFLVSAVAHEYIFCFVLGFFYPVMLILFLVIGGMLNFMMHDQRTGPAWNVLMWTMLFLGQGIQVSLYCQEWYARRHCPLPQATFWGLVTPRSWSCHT

[1] = tested on: cholesteryl ester synthesis in peritoneal macrophages; experiment: 3H-oleate incorporation into cholesteryl esters in peritoneal macrophages; assay type: cell-based, mouse; conditions: 5 μM, 16 hours, agLDL, macrophages from wild-type or LyzCre+/+ mice
Description: Peritoneal macrophages were isolated as previously described (Sakashita et al. 2010. J. Lipid Res. 51:1263-1272), four days after injecting 1 ml of thioglycolate (TG) (3% wt/vol; Sigma Chemical Co.). Peritoneal leukocytes were isolated and incubated in 6-well culture dishes with 2 ml/well DMEM medium with 10% FBS at 37° C. for two hours. After washing with PBS two times, the firmly attached macrophages were used to measure ACAT1 mRNA and protein level.
Experiments were then performed to confirm that ACAT1 was specifically deleted in macrophages of the Acat1^−M/−M mouse. Peritoneal macrophages were isolated from Acat1^−M/−M and Acat1+^M/+M mice four days after thioglycolate injection. The cells were incubated with aggregated LDL (agLDL), an agent known to provide large amount of cholesterol to macrophages (Khoo et al. 1988. Arteriosclerosis 8:348-358), with or without an ACAT inhibitor at a saturating concentration (Compound F12511; at 5 μM) (Chang et al. 2000. J. Biol. Chem. 275:28083-28092), for 16 hours, followed by ^3H-oleate incorporation to measure the biosynthesis of labeled cholesteryl esters. […] Next, ACAT1 mRNA and protein content were measured in wild-type and Acat1^−M/−M macrophages. […] In wild-type mice, ACAT1 is abundantly expressed in the adrenal glands.

ACAT1 = conditions: cited from earlier work
mouse ACAT1 = experiment: ACAT1 protein by western blot in transfected NIH-3T3 mouse fibroblasts; assay type: cell-based; conditions: NIH-3T3, rAAV vector transfection, 48 hours, GFP-positive cells
Source text: NIH-3T3 mouse fibroblasts were transiently transfected with one of several rAAV vectors encoding EmGFP and microRNA (miR) #52, #53, #54 or #55. Forty-eight hours post-transfection, GFP-positive cells were harvested by FACS. GFP-positive cells were washed then lysed in 10% SDS and syringe homogenized. Twenty microgram of protein per sample was subjected to SDS-PAGE. After western blot analysis, bands were quantified with ImageJ. ACAT1 intensity was normalized to GAPDH as a loading control and expressed as relative intensity.
Four different siRNA molecules (#52-#55; Table 3) targeting the mouse Acat1 gene were inserted into an endogenous mouse microRNA (miR) scaffold using Invitrogen's RNAi design tool. The artificial miRs were ligated into the mammalian expression vector pcDNA6.2-GW/EmGFP-miR. […] The miRs were delivered to the cells using a standard cDNA transfection protocol.

Row | Molecule | IC50 (ACAT2) | further results
1 | CCCCCCCC(=O)Nc1cc(-c2ccccc2)nn1-c1ccccc1 [compound 13] | 53 µM | –
2 | O=c1[nH]cc(F)c(=O)[nH]1 [5-FU, 5-fluorouracil] | – | depletion of blood myeloid cells (blood myeloid cells): almost all
3 | CCCCCCCC(=O)Nc1ccccc1-c1ccccc1 [compound 1] | 230 µM | –
4 | CC(C)c1cccc(C(C)C)c1NC(=O)CC(=O)C(Cc1ccccc1)Cc1ccc(O)cc1 (stereo not shown) [Compound 1B] | 1.5 µM | –
5 | CC(C)c1cccc(C(C)C)c1NC(=O)CC(=O)C(Cc1ccccc1)Cc1ccc(OC(=O)CCCCCCN2CCCCCC2=O)cc1 (stereo not shown) [Compound 1C] | 0.53 µM | –
6 | COc1ccc([C@@H](O)[C@@H](C)Oc2ccc([C@H]3O[C@H](c4ccc(O[C@H](C)[C@H](O)c5ccc6c(c5)OCO6)c(OC)c4)[C@H](C)[C@H]3C)cc2OC)cc1OC [manassantin B] | – | inhibition of hACAT-2 (hACAT-2; at 1 mM): 32%
7 | CCCCCCCCCCCCS[C@H](C(=O)Nc1cc(C)c(O)c(C)c1C)c1ccccc1 [Eflucimibe (F12511)] | 0.11 µM | cholesteryl ester synthesis rate [1]: drastically reduced
8 | CCCCCCCCC(=O)Nc1cc(-c2ccccc2)nn1-c1ccccc1 [compound 14] | 75 µM | –
9 | CCOC(=O)OC(=O)OCC [diethyl pyrocarbonate] | 170 µM | IC50 (ACAT1): 44 µM; greater activity on ACAT1 compared to ACAT-2 (ACAT1): 4 fold
10 | CCCCCCCCC(=O)Nc1ccccc1-c1ccccc1 [compound 2] | 414 µM | –
11 | saucerneol B | – | IC50 (hACAT-2): 124 µM
12 | miR Negative Control: negative control miR 5′-TACTGCGCGTGGAGACG-3′ (SEQ ID NO:17), matches no known vertebrate gene (chemistry not given here) | – | Relative Intensity (ACAT1 normalized to GAPDH) (mouse ACAT1): 1.02
13 | CCCCCCCCCNc1cc(-c2ccccc2)nn1-c1ccccc1 [compound 16] | 97 µM | –
